Measurements published in ChEMBL document CHEMBL1201862, “PubChem BioAssay data set” (2004).
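Tested at 5 concentrations; 48 h exposure; 96-well plates; endpoints linearly interpolated, else capped at highest concentration. Abbreviation: GI50, concentration required for 50% inhibition of growth.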 Activity calls are given as the source filed them. No stated cut-off is given here; in the data, active = GI50 up to about 1.1 µM and inactive = higher.

Columns and labels:
Experiment in all cases: growth of human tumour cells (NCI), 48 h
SR = system: SR
HL-60 = system: HL-60
OVCAR-4 = system: OVCAR-4
OVCAR-8 = system: OVCAR-8
NCI-H226 = system: NCI-H226
A498 = system: A498
NCI-H23 = system: NCI-H23
MDA-MB-231 = system: MDA-MB-231
K562 = system: K562
LOX IMVI = system: LOX IMVI
TK-10 = system: TK-10
SNB-19 = system: SNB-19
NCI-H522 = system: NCI-H522
SF-268 = system: SF-268
COLO 205 = system: COLO 205
Malme-3M = system: Malme-3M
MCF7 = system: MCF7
UACC-62 = system: UACC-62
MDA-N = system: MDA-N
UO-31 = system: UO-31

| SMILES | GI50 (SR) | GI50 (HL-60) | GI50 (OVCAR-4) | GI50 (OVCAR-8) | GI50 (NCI-H226) | GI50 (A498) | GI50 (NCI-H23) | GI50 (MDA-MB-231) | GI50 (K562) | GI50 (LOX IMVI) | GI50 (TK-10) | GI50 (SNB-19) | GI50 (NCI-H522) | GI50 (SF-268) | GI50 (COLO 205) | GI50 (Malme-3M) | GI50 (MCF7) | GI50 (UACC-62) | GI50 (MDA-N) | GI50 (UO-31) |
| --- | --- | --- | --- | --- | --- | --- | --- | --- | --- | --- | --- | --- | --- | --- | --- | --- | --- | --- | --- | --- |
| OCCN(CCO)c1ccc2c(C(F)(F)F)cc(C(F)(F)F)nc2n1 | > 100 µM (inactive) | > 100 µM (inactive) | > 100 µM (inactive) | > 77.6 µM (inactive) | > 100 µM (inactive) | 48.5 µM (inactive) | > 100 µM (inactive) | > 100 µM (inactive) | > 100 µM (inactive) | > 100 µM (inactive) | > 100 µM (inactive) | > 100 µM (inactive) | > 100 µM (inactive) | > 100 µM (inactive) | > 100 µM (inactive) | > 100 µM (inactive) | > 100 µM (inactive) | > 100 µM (inactive) | > 100 µM (inactive) | > 100 µM (inactive) |
| O=C(O)/C=C/C=C/c1ccc2c(c1)OCO2 [PIPERIC ACID] | > 100 µM (inactive) | > 100 µM (inactive) | > 100 µM (inactive) | > 100 µM (inactive) | > 100 µM (inactive) | > 100 µM (inactive) | > 100 µM (inactive) | > 100 µM (inactive) | > 100 µM (inactive) | > 100 µM (inactive) | > 100 µM (inactive) | > 100 µM (inactive) | > 100 µM (inactive) | > 100 µM (inactive) | > 100 µM (inactive) | > 100 µM (inactive) | > 100 µM (inactive) | > 100 µM (inactive) | > 100 µM (inactive) | > 100 µM (inactive) |
| COc1cc2ncnc(Nc3cccc(Cl)c3)c2cc1OC [TYRPHOSTIN AG-1478] | 7.33 µM (inactive) | 21.8 µM (inactive) | 18.1 µM (inactive) | 3.66 µM (inactive) | 2.4 µM (inactive) | 2.54 µM (inactive) | 14.6 µM (inactive) | 14.2 µM (inactive) | 8.71 µM (inactive) | 11.5 µM (inactive) | 0.173 µM (active) | 21 µM (inactive) | 0.356 µM (active) | 4.67 µM (inactive) | 17.9 µM (inactive) | 6.28 µM (inactive) | 21.5 µM (inactive) | 7.14 µM (inactive) | 15.1 µM (inactive) | 4.47 µM (inactive) |
